In ChEMBL document CHEMBL4376833, “Influence of Non-natural Cationic Amino Acids on the Biological Activity Profile of Innate Defense Regulator Peptides” (J Med Chem, 2019):
Activity calls are given as the source filed them. The rule behind the calls is not given here. Non-standard residues stand in square brackets, D forms with d. Residues, ends and D or L forms follow the SMILES beside them. hArg = N=C(N)NCCCC[C@H](N)C(=O)O; Agb = N=C(N)NCC[C@H](N)C(=O)O; Agp = N=C(N)NC[C@H](N)C(=O)O; Orn = NCCC[C@H](N)C(=O)O; Dab = NCC[C@H](N)C(=O)O; Dap = NC[C@H](N)C(=O)O

Key:
Staphylococcus aureus [1] = assay: Antibiofilm activity against methicillin-resistant Staphylococcus aureus assessed as inhibition of biofilm formation incubated for overnight by crystal violet staining based microtiter plate assay; assay type: functional, organism-based
Staphylococcus aureus [2] = assay: Antibiofilm activity against methicillin-resistant Staphylococcus aureus assessed as inhibition of biofilm formation by measuring residual biofilm growth incubated for overnight at 10-fold dilution by crystal violet staining based microtiter plate assay relative to control; assay type: functional
Staphylococcus aureus [3] = assay: Antibacterial activity against methicillin-resistant Staphylococcus aureus assessed as alteration in bacterial growth incubated for overnight by microtiter plate based spectrophotometric analysis; assay type: functional, organism-based

Compound | inhibition (Staphylococcus aureus [1]) | residual biofilm growth (% of control) (Staphylococcus aureus [2]) | Activity (Staphylococcus aureus [3])
CC[C@H](C)[C@H](NC(=O)[C@H](CCCNC(=N)N)NC(=O)[C@@H](NC(=O)[C@H](C)NC(=O)[C@@H](NC(=O)[C@@H](NC(=O)[C@H](CNC(=N)N)NC(=O)[C@H](CCCNC(=N)N)NC(=O)[C@@H](N)C(C)C)[C@@H](C)CC)C(C)C)C(C)C)C(=O)N[C@@H](Cc1c[nH]c2ccccc12)C(=O)N[C@@H](CCCNC(=N)N)C(=O)N[C@@H](CCCNC(=N)N)C(N)=O (H-VR[Agp]IVAVRIWRR-NH2) | Dose-dependent effect | 102.2% | Active
CC[C@H](C)[C@H](NC(=O)[C@H](CCCNC(=N)N)NC(=O)[C@@H](NC(=O)[C@H](C)NC(=O)[C@@H](NC(=O)[C@@H](NC(=O)[C@H](CCN)NC(=O)[C@H](CCCNC(=N)N)NC(=O)[C@@H](N)C(C)C)[C@@H](C)CC)C(C)C)C(C)C)C(=O)N[C@@H](Cc1c[nH]c2ccccc12)C(=O)N[C@@H](CCCNC(=N)N)C(=O)N[C@@H](CCCNC(=N)N)C(N)=O (H-VR[Dab]IVAVRIWRR-NH2) | Dose-dependent effect | 48.6% | Active
CC[C@H](C)[C@H](NC(=O)[C@H](CCCNC(=N)N)NC(=O)[C@@H](NC(=O)[C@H](C)NC(=O)[C@@H](NC(=O)[C@@H](NC(=O)[C@H](CN)NC(=O)[C@H](CCCNC(=N)N)NC(=O)[C@@H](N)C(C)C)[C@@H](C)CC)C(C)C)C(C)C)C(=O)N[C@@H](Cc1c[nH]c2ccccc12)C(=O)N[C@@H](CCCNC(=N)N)C(=O)N[C@@H](CCCNC(=N)N)C(N)=O (H-VR[Dap]IVAVRIWRR-NH2) | Dose-dependent effect | 104.7% | Active
CC[C@H](C)[C@H](NC(=O)[C@H](CCCNC(=N)N)NC(=O)[C@@H](NC(=O)[C@H](C)NC(=O)[C@@H](NC(=O)[C@@H](NC(=O)[C@H](CCCN)NC(=O)[C@H](CCCNC(=N)N)NC(=O)[C@@H](N)C(C)C)[C@@H](C)CC)C(C)C)C(C)C)C(=O)N[C@@H](Cc1c[nH]c2ccccc12)C(=O)N[C@@H](CCCNC(=N)N)C(=O)N[C@@H](CCCNC(=N)N)C(N)=O (H-VR[Orn]IVAVRIWRR-NH2) | Dose-dependent effect | 99.3% | Active
CC[C@H](C)[C@H](NC(=O)[C@H](CCCNC(=N)N)NC(=O)[C@@H](NC(=O)[C@H](C)NC(=O)[C@@H](NC(=O)[C@@H](NC(=O)[C@H](CCCCNC(=N)N)NC(=O)[C@H](CCCNC(=N)N)NC(=O)[C@@H](N)C(C)C)[C@@H](C)CC)C(C)C)C(C)C)C(=O)N[C@@H](Cc1c[nH]c2ccccc12)C(=O)N[C@@H](CCCNC(=N)N)C(=O)N[C@@H](CCCNC(=N)N)C(N)=O (H-VR[hArg]IVAVRIWRR-NH2) | Dose-dependent effect | 108.6% | Active
CC[C@H](C)[C@H](NC(=O)[C@H](CCCNC(=N)N)NC(=O)[C@@H](NC(=O)[C@H](C)NC(=O)[C@@H](NC(=O)[C@@H](NC(=O)[C@H](CC(C)C)NC(=O)[C@H](CCNC(=N)N)NC(=O)[C@@H](N)C(C)C)[C@@H](C)CC)C(C)C)C(C)C)C(=O)N[C@@H](Cc1c[nH]c2ccccc12)C(=O)N[C@@H](CCCNC(=N)N)C(=O)N[C@@H](CCCNC(=N)N)C(N)=O (H-V[Agb]LIVAVRIWRR-NH2) | Dose-dependent effect | 29.6% | Active
CC[C@H](C)[C@H](NC(=O)[C@H](CCCNC(=N)N)NC(=O)[C@@H](NC(=O)[C@H](C)NC(=O)[C@@H](NC(=O)[C@@H](NC(=O)[C@H](CC(C)C)NC(=O)[C@H](CNC(=N)N)NC(=O)[C@@H](N)C(C)C)[C@@H](C)CC)C(C)C)C(C)C)C(=O)N[C@@H](Cc1c[nH]c2ccccc12)C(=O)N[C@@H](CCCNC(=N)N)C(=O)N[C@@H](CCCNC(=N)N)C(N)=O (H-V[Agp]LIVAVRIWRR-NH2) | Dose-dependent effect | 28.3% | Active
CC[C@H](C)[C@H](NC(=O)[C@H](CCCNC(=N)N)NC(=O)[C@@H](NC(=O)[C@H](C)NC(=O)[C@@H](NC(=O)[C@@H](NC(=O)[C@H](CC(C)C)NC(=O)[C@H](CCN)NC(=O)[C@@H](N)C(C)C)[C@@H](C)CC)C(C)C)C(C)C)C(=O)N[C@@H](Cc1c[nH]c2ccccc12)C(=O)N[C@@H](CCCNC(=N)N)C(=O)N[C@@H](CCCNC(=N)N)C(N)=O (H-V[Dab]LIVAVRIWRR-NH2) | Dose-dependent effect | 21.5% | Active
CC[C@H](C)[C@H](NC(=O)[C@H](CCCNC(=N)N)NC(=O)[C@@H](NC(=O)[C@H](C)NC(=O)[C@@H](NC(=O)[C@@H](NC(=O)[C@H](CC(C)C)NC(=O)[C@H](CN)NC(=O)[C@@H](N)C(C)C)[C@@H](C)CC)C(C)C)C(C)C)C(=O)N[C@@H](Cc1c[nH]c2ccccc12)C(=O)N[C@@H](CCCNC(=N)N)C(=O)N[C@@H](CCCNC(=N)N)C(N)=O (H-V[Dap]LIVAVRIWRR-NH2) | Dose-dependent effect | 19.1% | Active
CC[C@H](C)[C@H](NC(=O)[C@H](CCCNC(=N)N)NC(=O)[C@@H](NC(=O)[C@H](C)NC(=O)[C@@H](NC(=O)[C@@H](NC(=O)[C@H](CC(C)C)NC(=O)[C@H](CCCN)NC(=O)[C@@H](N)C(C)C)[C@@H](C)CC)C(C)C)C(C)C)C(=O)N[C@@H](Cc1c[nH]c2ccccc12)C(=O)N[C@@H](CCCNC(=N)N)C(=O)N[C@@H](CCCNC(=N)N)C(N)=O (H-V[Orn]LIVAVRIWRR-NH2) | Dose-dependent effect | 13.2% | Active
CC[C@H](C)[C@H](NC(=O)[C@H](CCCNC(=N)N)NC(=O)[C@@H](NC(=O)[C@H](C)NC(=O)[C@@H](NC(=O)[C@@H](NC(=O)[C@H](CC(C)C)NC(=O)[C@H](CCCCNC(=N)N)NC(=O)[C@@H](N)C(C)C)[C@@H](C)CC)C(C)C)C(C)C)C(=O)N[C@@H](Cc1c[nH]c2ccccc12)C(=O)N[C@@H](CCCNC(=N)N)C(=O)N[C@@H](CCCNC(=N)N)C(N)=O (H-V[hArg]LIVAVRIWRR-NH2) | Dose-dependent effect | 38.4% | Active
CC[C@H](C)[C@H](NC(=O)[C@H](CCCNC(=N)N)NC(=O)[C@@H](NC(=O)[C@H](C)NC(=O)[C@@H](NC(=O)[C@@H](NC(=O)[C@H](CC(C)C)NC(=O)[C@H](CCCNC(=N)N)NC(=O)[C@@H](N)CCNC(=N)N)[C@@H](C)CC)C(C)C)C(C)C)C(=O)N[C@@H](Cc1c[nH]c2ccccc12)C(=O)N[C@@H](CCCNC(=N)N)C(=O)N[C@@H](CCCNC(=N)N)C(N)=O (H-[Agb]RLIVAVRIWRR-NH2) | Dose-dependent effect | 13.6% | Active
CC[C@H](C)[C@H](NC(=O)[C@H](CCCNC(=N)N)NC(=O)[C@@H](NC(=O)[C@H](C)NC(=O)[C@@H](NC(=O)[C@@H](NC(=O)[C@H](CC(C)C)NC(=O)[C@H](CCCNC(=N)N)NC(=O)[C@@H](N)CNC(=N)N)[C@@H](C)CC)C(C)C)C(C)C)C(=O)N[C@@H](Cc1c[nH]c2ccccc12)C(=O)N[C@@H](CCCNC(=N)N)C(=O)N[C@@H](CCCNC(=N)N)C(N)=O (H-[Agp]RLIVAVRIWRR-NH2) | Dose-dependent effect | 10.6% | Active
CC[C@H](C)[C@H](NC(=O)[C@H](CCCNC(=N)N)NC(=O)[C@@H](NC(=O)[C@H](C)NC(=O)[C@@H](NC(=O)[C@@H](NC(=O)[C@H](CC(C)C)NC(=O)[C@H](CCCNC(=N)N)NC(=O)[C@@H](N)CCN)[C@@H](C)CC)C(C)C)C(C)C)C(=O)N[C@@H](Cc1c[nH]c2ccccc12)C(=O)N[C@@H](CCCNC(=N)N)C(=O)N[C@@H](CCCNC(=N)N)C(N)=O (H-[Dab]RLIVAVRIWRR-NH2) | Dose-dependent effect | 14.2% | Active
CC[C@H](C)[C@H](NC(=O)[C@H](CCCNC(=N)N)NC(=O)[C@@H](NC(=O)[C@H](C)NC(=O)[C@@H](NC(=O)[C@@H](NC(=O)[C@H](CC(C)C)NC(=O)[C@H](CCCNC(=N)N)NC(=O)[C@@H](N)CN)[C@@H](C)CC)C(C)C)C(C)C)C(=O)N[C@@H](Cc1c[nH]c2ccccc12)C(=O)N[C@@H](CCCNC(=N)N)C(=O)N[C@@H](CCCNC(=N)N)C(N)=O (H-[Dap]RLIVAVRIWRR-NH2) | Dose-dependent effect | 8.5% | Active
CC[C@H](C)[C@H](NC(=O)[C@H](CCCNC(=N)N)NC(=O)[C@@H](NC(=O)[C@H](C)NC(=O)[C@@H](NC(=O)[C@@H](NC(=O)[C@H](CC(C)C)NC(=O)[C@H](CCCNC(=N)N)NC(=O)[C@@H](N)CCCN)[C@@H](C)CC)C(C)C)C(C)C)C(=O)N[C@@H](Cc1c[nH]c2ccccc12)C(=O)N[C@@H](CCCNC(=N)N)C(=O)N[C@@H](CCCNC(=N)N)C(N)=O (H-[Orn]RLIVAVRIWRR-NH2) | Dose-dependent effect | 12.2% | Active
CC[C@H](C)[C@H](NC(=O)[C@H](CCCNC(=N)N)NC(=O)[C@@H](NC(=O)[C@H](C)NC(=O)[C@@H](NC(=O)[C@@H](NC(=O)[C@H](CC(C)C)NC(=O)[C@H](CCCNC(=N)N)NC(=O)[C@@H](N)CCCCNC(=N)N)[C@@H](C)CC)C(C)C)C(C)C)C(=O)N[C@@H](Cc1c[nH]c2ccccc12)C(=O)N[C@@H](CCCNC(=N)N)C(=O)N[C@@H](CCCNC(=N)N)C(N)=O (H-[hArg]RLIVAVRIWRR-NH2) | Dose-dependent effect | 17.1% | Active
H-KRLIVAVRIWRR-NH2 | Dose-dependent effect | 12% | Active
H-RRLIVAVRIWRR-NH2 | Dose-dependent effect | 12.2% | Active
H-VKLIVAVRIWRR-NH2 | Dose-dependent effect | 7.6% | Active
H-VRKIVAVRIWRR-NH2 | Dose-dependent effect | 88.8% | Active
